Here are results for 1 compound from US20050238734A1, “Detection of nitrosylated proteins” (University of Vermont and State Agricultural College, priority 2004, published 2005).

Test [1] relates to Mouse lung epithelial (C10) cells. Kind of test: NO/S-nitrosothiol content of cell lysates by chemiluminescence. The settings on record: 1 mM GSNO, about one hour. Format: cell-based. Here is the method:
A line of spontaneously transformed mouse lung alveolar type II epithelial cells (C10) was used in some experiments, as described below. […] In experiments involving microscopic analysis, the cells were grown on glass cover slips. At about one hour prior to exposure to a test agent, the medium was switched to phenol red free DMEM/F12 containing 0.5% FBS. Some cells were exposed to S-nitroso-glutathione (GSNO) or S-nitroso-N-acetyl penicillamine (SNAP) for about 1 hour, in the presence of an equimolar concentration of freshly prepared L-cysteine. To monitor S-nitrosylation in response to NOS2 activation, the cells were treated with 10 ng/ml TNF alpha (TNFα) and 100 U/ml interferon gamma (IFNγ), for about 24 hours. […] S-nitrosothiols were detected in cell lysates or immunoprecipitated protein by chemiluminescence, using a nitric oxide analyzer (Ionics, Boulder, Colo.). […] In order to eliminate the contribution of nitrites to the observed photoelectric signal, the cell lysates were incubated with a nitrite quencher, sulfanilamide, and assessed the sulfanilamide resistant NO signal by chemiluminescence. Under these experimental conditions, employing 12 micrograms of protein, S-nitrosthiol was not detected in the sham controls (<5 pmol), but a sulfamilamide-resistant NO signal was detected in lysates from cells treated with GSNO.

For the next test, the system named is C10 cells. Kind of test: In situ detection of S-nitrosylated proteins in intact cells (biotin derivatization, streptavidin-FITC, confocal microscopy). Format: cell-based, mouse. The note with it: 1 mM, 1 hour. Here is the method: A line of spontaneously transformed mouse lung alveolar type II epithelial cells (C10) was used in some experiments, as described below. C10 cells were cultured in CMRL1066 medium containing 10% fetal bovine serum (FBS, GIBCO). In experiments involving microscopic analysis, the cells were grown on glass cover slips. At about one hour prior to exposure to a test agent, the medium was switched to phenol red free DMEM/F12 containing 0.5% FBS. Some cells were exposed to S-nitroso-glutathione (GSNO) or S-nitroso-N-acetyl penicillamine (SNAP) for about 1 hour, in the presence of an equimolar concentration of freshly prepared L-cysteine. To monitor S-nitrosylation in response to NOS2 activation, the cells were treated with 10 ng/ml TNF alpha (TNFα) and 100 U/ml interferon gamma (IFNγ), for about 24 hours. Incubation with L-N-monomethyl arginine (L-NMMA) for about 16 hours was used to inhibit endogenous NO production and D-NMMA (D-N-monomethyl arginine) was used as a control. Nuclear export was blocked by leptomycin B (5 ng/ml, exposure for about 12 hours). All experiments were performed in duplicate and were repeated at least three times.
To evaluate the localization of S-nitrosylated proteins in intact cells, the biotin derivatization method described above was used in combination with fluorophore labeling and visualized using confocal microscopy. Cells grown on cover slips were rinsed with PBS containing 0.1 mM EDTA and 0.01 mM neocuproine, and fixed in 4% PFA (paraformaldehyde) for 20 minutes at RT. The cells were permeabilized, and protein SH groups were blocked using HEN buffer containing 2.5% SDS, 0.5% CHAPS, and 20 mM MMTS (methylmethanethiosulfonate) for 20 min at 55° C. with constant shaking. After removal of MMTS, the cells were incubated with 1 mM sodium ascorbate and 0.4 mM biotin-HPDP (N-[6-(biotinamido)hexyl]-3′-(2′-pyridyldithio)propionamide) for about an hour at RT, and the cover slips were then incubated overnight with streptavidin-FITC at 4° C. Blocking was performed using 20 mM NEM for 30 minutes at 4° C., followed by incubation with 0.05 mM MPB and 1 mM sodium ascorbate for 1 hour at RT. The nuclei were stained with 10 microgram/ml PI (propidium iodide) for 30 minutes at RT. The cells were analyzed by confocal microscopy (magnification 40×) using an Olympus BX50 microscope coupled to a Bio-Rad (Hercules Calif.) MRC 1024 confocal scanning laser microscope system. Control experiments were also performed in which blocking of SH groups was omitted, or in which 100 micromolar HgCl2 was added prior to blocking of SH groups with MMTS or NEM. To assess the contribution of endogenous biotinylated proteins, the biotin-label was omitted in some control cover slips. All manipulations were performed in the dark. […]

Another test relates to lungs of Balb/c mice. Kind of test: Detection of S-nitrosylated proteins in frozen lung sections after intratracheal administration. It counts as in vivo, mouse. The note with it: 50 microliters of 10 mM intratracheally, about 2 hours, versus PBS.
Test [2] has as its target T1, RanGTPase (Mus musculus, UniProt P62827).
T1 construct: Ran was immunoprecipitated from equivalent amounts of total cell lysates; endogenous in cells; host or cells: C10 mouse lung alveolar type II epithelial cells
Kind of test: SNO content of immunoprecipitated RanGTPase by chemiluminescence. It counts as cell-based. The note with it: 1 mM, about 1 hour. Here is the method:
S-nitrosothiols were detected in cell lysates or immunoprecipitated protein by chemiluminescence, using a nitric oxide analyzer (Ionics, Boulder, Colo.). Cell lysates were incubated for about 15 minutes in the presence or absence of sulfanilamide (0.5%).
Ran was immunoprecipitated from equivalent amounts of total cell lysates, using a Ran goat polyclonal IgG (Santa Cruz) and protein G-agarose beads. The immunoprecipitates were washed three times with HEN buffer (25 mM HEPES, pH 7.7, 0.1 mM EDTA, 0.01 mM neocuproine) and the immunocomplexes were injected into the purge vessel for NO analysis.
Chemiluminescence was first performed to detect the S-nitrosylation of immunoprecipitated RanGTPase. […] In these experiments, the cells were treated with 1 mM GSNO for about 1 hour, washed, and Ran was immunoprecipitated form the total lysate using a Ran-specific antibody and protein G agarose beads. The immunocomplexes were washed three times and directly injected into the purge vessel using techniques similar to those described in Example 1. As a control, pre-immune IgG was used instead of Ran antibody. Western blot analysis confirmed the presence of RanGTPase in the immunocomplexes (FIG. 7B).

Test [3] addresses T1, RanGTPase. Kind of test: Biotin derivatization of RanGTPase, immunoprecipitation, Western blot with streptavidin-HRP. Format: cell-based. The settings on record: after treatment of cells, versus basal. Here is the method: Biotin labeling of S-nitrosylated proteins in cell lysates proceeded as follows. At selected time points, cells were rinsed with PBS containing 0.1 mM EDTA and 0.01 mM neocuproine and lysed in HEN buffer containing 0.1% SDS, 0.5% CHAPS, and 20 mM NEM (N-ethylmaleimide) by rocking for 30 minutes at 4° C. The lysates were centrifuged at 14,000 g at 4° C. for about 10 minutes, and the excess NEM used to block sulfhydryl groups (SH) was removed by protein precipitation with acetone. The pellets were resuspended in HEN buffer containing 1% SDS (HENS), and the S-nitrosothiols were reduced and biotinylated by the simultaneous addition of 10 mM sodium ascorbate and 0.05 mM of the sulfhydryl-specific biotinylating agent, MPB (N-(3-maleimidylpropionyl) biocytin, Molecular Probes), for 1 hour at room temperature (RT, about 25° C.). […] Biotinylation of Ran was detected using streptavidin-HRP. […]
To confirm that RanGTPase itself was S-nitrosylated, a biotin derivatization approach was used, including immunoprecipitating RanGTPase and determining biotinylated RanGTPase by Western blotting using streptavidin-HRP. […] Ran was immunoprecipitated from total cell lysates, and biotinylated RanGTPase was determined by Western blotting and by peroxidase-conjugated streptavidin (FIG. 7C, upper panel). […] In the lower panel of FIG. 7C, as a loading control, Ran was detected in whole cell lysates by Western blotting.
Background: Immunoblotting shows a protein as a band on a membrane.

In the case of `N[C@@H](CCC(=O)N[C@@H](CSN=O)C(=O)NCC(=O)O)C(=O)O` [GSNO, S-nitroso-glutathione], the “sulfanilamide-resistant NO signal (S-nitrosothiol) in lysates” value in test [1] (12 micrograms of protein) is “detected”. In addition, in test [1] (versus non-treated cells), the “total NO content in lysates” value was “increased”. Moreover, the “biotinylation (S-nitrosylated proteins) in intact cells” value with C10 cells was “enhanced”. In the test on lungs of Balb/c mice, the “biotin reactivity (S-nitrosylated proteins) in lungs” value is reported as “markedly increased”. For the same compound, on RanGTPase [2], the “SNO content of immunoprecipitated RanGTPase” value is recorded as “increase”. Besides, the “biotinylation of RanGTPase” value on RanGTPase [3] is on record as “enhanced”.
